The record followed here is patent publication US6486193B2, “3-substituted pyrrolidines useful as inhibitors of matrix metalloproteinases” (Aventis Pharmaceuticals Inc., priority 1998, dated 2002).

Some results are limits rather than exact numbers.

Format in all cases: biochemical
For assay [1], the target named is MMP-13 (Homo sapiens, UniProt P45452). The assay is described as follows: Ki app for MMP-13. The conditions noted are these: footnote: results are identical for MMP-1, MMP-2, MMP-3, MMP-13 and MMP-14.
In assay [2] the target is MMP-14 (Homo sapiens, UniProt P50281). The assay is described as follows: Ki app for MMP-14. The conditions noted are these: footnote: results are identical for MMP-1, MMP-2, MMP-3, MMP-13 and MMP-14.
For assay [3], the target named is T1, MMP-3 (Homo sapiens, UniProt P08254).
T1 construct: The active MMP-3 was obtained by treatment of proMMP-3 with trypsin; endogenous in cells; host or cells: human rheumatoid synovial fibroblasts stimulated with macrophage-conditioned medium (secreted proenzyme purified from the medium)
T1 sequence (P08254 100-477): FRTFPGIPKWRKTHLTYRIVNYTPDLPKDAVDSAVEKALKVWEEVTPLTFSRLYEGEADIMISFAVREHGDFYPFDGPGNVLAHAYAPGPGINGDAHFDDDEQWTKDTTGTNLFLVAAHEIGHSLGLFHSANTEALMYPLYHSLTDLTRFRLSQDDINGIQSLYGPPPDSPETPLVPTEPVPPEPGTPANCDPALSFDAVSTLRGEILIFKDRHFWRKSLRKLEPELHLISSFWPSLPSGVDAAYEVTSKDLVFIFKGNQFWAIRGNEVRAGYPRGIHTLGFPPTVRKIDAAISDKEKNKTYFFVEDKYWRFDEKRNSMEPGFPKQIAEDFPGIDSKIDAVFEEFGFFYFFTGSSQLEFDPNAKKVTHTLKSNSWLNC
Kind of assay: Determination of inhibition constant (Ki) for MMP-3, fluorogenic substrate. The following applies: footnote: results are identical for MMP-1, MMP-2, MMP-3, MMP-13 and MMP-14, read-out: MMP Ki app. The protocol: ProMMP-3 (EC 3.4.24.17; Stromelysin-1) was purified from culture medium of human rheumatoid synovial fibroblasts stimulated with macrophage-conditioned medium according to Okada, Y. et al., J. Biol. Chem. 261, 14245-14255 (1986). The active MMP-3 was obtained by treatment of proMMP-3 with trypsin (5 μg/mL) at 37° C. for 30 minutes, followed by addition of soybean trypsin inhibitor (50 μg/mL). Aliquots of the activated MMP-3 were stored at −20° C.
The activated MMP-3 is assayed using a fluorogenic substrate, Mca-Pro-Leu-Gly-Leu-Dpa-Ala-Arg-NH2, Knight, C.G. et al., FEBS Lett. 296, 263-266 (1992), at 37° C. in an assay buffer containing 50 mM Tris, pH 7.6, 0.2 M sodium chloride, 50 mM calcium chloride, and 0.02% Brij-35. The increase in fluorescence due to cleavage of Gly-Leu peptide bond by MMP-3 was monitored with Perkin-Elmer LS50B Fluorimeter (λex 328 nm, λem 393 nm, excitation slit 2.5, emission slit 10). Substrate and inhibitor stock solutions were made in DMF and 0.1 % HCl-DMF, respectively. For determination of Ki values for MMP-3 inhibitors, a series of intermediate inhibitor solutions were prepared in 0.1% HCl-DMF and 1 or 2 μL of the diluted inhibitor solution was mixed with 1 μL of 2 mM substrate solution in DMF in a quartz cuvette containing 2 mL of assay buffer. The enzyme (10 μL of 0.2 μM MMP-3 dilution in assay buffer) was added at the last to start the reaction. For routine measurement of a Ki value for a reversible, competitive inhibitor, the initial rates in the presence of at least four inhibitor concentrations (two concentrations above Ki and two concentrations below Ki) were measured using [S]=1 μM (<<Km) and [MMP-3]=1 nM. Under these conditions, the measured Ki, app is close to true Ki.
The K, for a competitive inhibitor is calculated using: V0/vi=(1+[I]/Ki, app) and Ki=Ki, app/(1+[S]/Km), where v0 is the initial rate in the absence of inhibitor, vi is the initial rate in the presence of inhibitor at the concentration of [I], [S] is the substrate concentration, and Km is the Michaelis constant. If slow binding is observed (i.e. if the approach to the binding equilibrium is slow), the final steady-state rate rather than the initial rate is taken as vi.

Assay [4] deals with MMP-8 (Homo sapiens, UniProt P22894). Kind of assay: MMP-8 enzyme activity, quenched fluorigenic substrate, 96 well plate. The following applies: read-out: MMP-8 Ki app. As for the experimental part:
The MMP-8 data was determined according to Knight C. G. et al., Febs Lett, 296, 263-266 (1992), “A novel coumarin-labelled peptide for sensitive continuous assays of the matrix metalloproteinases” in the modification of K. U. Weithmann et al., Inflamm. Res. 46 (7), 246-252 (1997), “Effects of tiaprofenic acid on urinary pyridinium crosslinks in adjuvant arthritic rats: Comparison and doxycycline effects on human matrix metalloproteinases and cellular cytokine generation in vitro” as follows:
Enzyme activity of MMP was determined in 96 well titer plate format in a luminescence spectrometer (LS 50B, Perkin Elmer, Langen, FRG), using the quenched fluorigenic substrate 7-methoxycoumarin-4-yl) acetyl-pro-leu-gly-leu-3-(2′,4′-dinitrophenyl)-L-2,3-diaminopropionyl-ala-arg-NH2 (λex=328 nm, λem=393 nm), available from Bachem, Heidelberg, FRG. Each well contained: 70 μl buffer (0.1 mol/l tris/HCl, pH=7.5; 0.1 mol/l NaCl; 0.01 mol/l CaCl2,0.05% Brij 35™), 10 μl enzyme, and 10 μl drug in 10%DMSO. After preincubation for 15 min at room temperature the reaction was started by addition of 10 μl substrate (1 mmol/l in 10% DMSO). Initial velocity of enzymatic reaction was determined without drug (=100%) or, resp. with different drug concentrations.

MMP-8, sequence (P22894 101-467): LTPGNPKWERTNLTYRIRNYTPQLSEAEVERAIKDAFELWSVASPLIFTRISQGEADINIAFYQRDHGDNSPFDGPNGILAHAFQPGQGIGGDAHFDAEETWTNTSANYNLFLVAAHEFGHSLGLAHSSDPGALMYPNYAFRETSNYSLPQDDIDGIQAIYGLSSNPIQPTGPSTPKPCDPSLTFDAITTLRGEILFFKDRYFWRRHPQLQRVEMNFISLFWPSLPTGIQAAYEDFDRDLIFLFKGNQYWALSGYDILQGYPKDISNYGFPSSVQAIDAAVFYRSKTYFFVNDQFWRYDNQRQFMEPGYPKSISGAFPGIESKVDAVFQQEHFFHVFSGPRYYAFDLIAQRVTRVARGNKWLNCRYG

In the case of `CNC(=O)[C@@H](Cc1cccnc1)NC(=O)[C@@H]1C(Cc2ccccc2)CCN1C(=O)[C@@H](S)C(C)C` (stereo in doubt) [Compound 1f, (2S,3S)-3-Benzyl-1-((S)-2-mercapto-3-methyl-butanoyl)-pyrrolidine-2-carboxylic acid ((R)-1-methylcarbamoyl-2-pyridin-3-yl-ethyl)-amide], the Ki in assay [1], in assay [2], in assay [3] and in assay [4] was greater than 10 µM throughout.

`CNC(=O)[C@H](Cc1ccc(O)cc1)NC(=O)[C@@H]1[C@@H](Cc2ccccc2)CCN1C(=O)[C@@H](S)C(C)C` [Compound 1a, (2S,3S)-3-Benzyl-1-((S)-2-mercapto-3-methyl-butanoyl)-pyrrolidine-2-carboxylic acid [(S)-2-(4-hydroxy-phenyl)-1-methylcarbamoyl-ethyl]-amide]: the Ki in assay [1], in assay [2], in assay [3] and in assay [4] was greater than 10 µM each time.

As to `CNC(=O)[C@H](Cc1ccc(O)cc1)NC(=O)[C@@H]1[C@H](Cc2ccccc2)CCN1C(=O)[C@@H](S)C(C)C` [Compound 1b, (2S,3R)-3-Benzyl-1-((S)-2-mercapto-3-methyl-butanoyl)-pyrrolidine-2-carboxylic acid [(S)-2-(4-hydroxy-phenyl)-1-methylcarbamoyl-ethyl]-amide], the Ki in assay [1] is greater than 10 µM; in assay [2], greater than 10 µM; in assay [3] it was greater than 10 µM; in assay [4], 3 µM.

Take `CNC(=O)[C@H](Cc1cccnc1)NC(=O)[C@@H]1[C@@H](Cc2ccccc2)CCN1C(=O)[C@@H](S)C(C)C` [Compound 1c, (2S,3S)-3-Benzyl-1-((S)-2-mercapto-3-methyl-butanoyl)-pyrrolidine-2-carboxylic acid ((S)-1-methylcarbamoyl-2-pyridin-3-yl-ethyl)-amide]: the Ki in assay [1] was greater than 10 µM; in assay [2], greater than 10 µM; in assay [3] it was greater than 10 µM; in assay [4], 9 µM.

For `CNC(=O)[C@H](Cc1cccnc1)NC(=O)[C@@H]1[C@H](Cc2ccccc2)CCN1C(=O)[C@@H](S)C(C)C` [Compound 1d, (2S,3R)-3-Benzyl-1-((S)-2-mercapto-3-methyl-butanoyl)-pyrrolidine-2-carboxylic acid ((S)-1-methylcarbamoyl-2-pyridin-3-yl-ethyl)-amide], the Ki was greater than 10 µM in assay [1], greater than 10 µM in assay [2], greater than 10 µM in assay [3] and 4 µM in assay [4].

Take `CNC(=O)[C@@H](Cc1cccnc1)NC(=O)[C@@H]1[C@@H](Cc2ccccc2)CCN1C(=O)[C@@H](S)C(C)C` [Compound 1e, (2S,3S)-3-Benzyl-1-((S)-2-mercapto-3-methyl-butanoyl)-pyrrolidine-2-carboxylic acid ((R)-1-methylcarbamoyl-2-pyridin-3-yl-ethyl)-amide]: the Ki in assay [1], in assay [2], in assay [3] and in assay [4] was greater than 10 µM each time.

As for `CNC(=O)[C@@H](NC(=O)[C@@H]1[C@@H](Cc2ccccc2)CCN1C(=O)[C@@H](S)C(C)C)C(C)(C)C` [Compound 1g, (2S,3S)-3-Benzyl-1-((S)-2-mercapto-3-methyl-butanoyl)-pyrrolidine-2-carboxylic acid ((S)-2,2-dimethyl-1-methylcarbamoyl-propyl)-amide], the Ki in assay [1], in assay [2], in assay [3] and in assay [4] was greater than 10 µM throughout.

Take `CNC(=O)[C@@H](NC(=O)[C@@H]1[C@H](Cc2ccccc2)CCN1C(=O)[C@@H](S)C(C)C)C(C)(C)C` [Compound 1h, (2S,3R)-3-Benzyl-1-((S)-2-mercapto-3-methyl-butanoyl)-pyrrolidine-2-carboxylic acid ((S)-2,2-dimethyl-1-methylcarbamoyl-propyl)-amide]: the Ki in assay [1] was greater than 10 µM; in assay [2] it was greater than 10 µM; in assay [3] it was greater than 10 µM; in assay [4], 3 µM.
